Calls of active or inactive are those of the source. The calls are words filed in the database; no cut-off is given here.
Columns and labels:
A549 [1] = experiment: Cytotoxicity against human A549 cells assessed as cell viability at >40 uM after 24 hrs by MTT assay relative to gefitinib; assay type: functional
RKO = details: Homo sapiens, at 20 to 80 µM
Description: Cytotoxicity against human RKO cells assessed as reduction in cell viability at 20 to 80 uM after 24 hrs by MTT assay

BFTC-905 = details: Homo sapiens, at 20 to 80 µM
Description: Cytotoxicity against human BFTC905 cells assessed as reduction in cell viability at 20 to 80 uM after 24 hrs by MTT assay

A549 [2] = experiment: Cytotoxicity against human A549 cells assessed as cell viability at 10 uM after 24 hrs by MTT assay (reference value: 100%); assay type: functional; details: A549, 24 h, read-out: Activity
A549 [3] = experiment: Cytotoxicity against human A549 cells assessed as cell viability at 20 uM after 24 hrs by MTT assay (reference value: 100%); assay type: functional; details: A549, 24 h, read-out: Activity
A549 [4] = experiment: Cytotoxicity against human A549 cells assessed as cell viability at 40 uM after 24 hrs by MTT assay (reference value: 100%); assay type: functional; details: A549, 24 h, read-out: Activity
A549 [5] = experiment: Cytotoxicity against human A549 cells assessed as cell viability at 60 uM after 24 hrs by MTT assay (reference value: 100%); assay type: functional; details: A549, 24 h, read-out: Activity
A549 [6] = experiment: Cytotoxicity against human A549 cells assessed as cell viability at 80 uM after 24 hrs by MTT assay (reference value: 100%); assay type: functional; details: A549, 24 h, read-out: Activity

Compound	Ratio (A549 [1])	inhibition (RKO)	inhibition (BFTC-905)	other results
CCCCCCCCCCOC(=O)CCC(=O)N1CCN(CCCOc2cc3c(Nc4ccc(F)c(Cl)c4)ncnc3cc2OC)CC1	15	–	–	–
CCCCCCCCCCCOC(=O)CCC(=O)N1CCN(CCCOc2cc3c(Nc4ccc(F)c(Cl)c4)ncnc3cc2OC)CC1	15	–	–	–
COc1cc2ncnc(Nc3ccc(F)c(Cl)c3)c2cc1OCCCN1CCN(C(=O)CCC(=O)O)CC1	–	Active	Active	–
CCCCCCCCCCCCOC(=O)CCC(=O)N1CCN(CCCOc2cc3c(Nc4ccc(F)c(Cl)c4)ncnc3cc2OC)CC1	15	–	–	–
COc1cc2ncnc(Nc3ccc(F)c(Cl)c3)c2cc1OCCCN1CCOC(=O)C1	–	–	–	viability at 10 µM (A549 [2]): 96.1%; viability at 20 µM (A549 [3]): 93.1%; viability at 40 µM (A549 [4]): 91%; viability at 60 µM (A549 [5]): 94.1%; viability at 80 µM (A549 [6]): 94.9%
COC(=O)CCC(=O)N1CCN(CCCOc2cc3c(Nc4ccc(F)c(Cl)c4)ncnc3cc2OC)CC1	–	Active	Active	–
